From patent US12435072B2, “Compounds” (Vicore Pharma AB, priority 2019, dated 2025)

Legend:
[1] = target: T1, human recombinant AT2 receptor (Homo sapiens, UniProt P50052); experiment: Binding to AT2 receptor, radiometric scintillation assay (Eurofins); conditions: ligand 125I CGP 42112A, tested at 1, 10, 100 and 1000 nM
T1 construct: purchased Eurofins ITEM26
T1 sequence (P50052 1-363): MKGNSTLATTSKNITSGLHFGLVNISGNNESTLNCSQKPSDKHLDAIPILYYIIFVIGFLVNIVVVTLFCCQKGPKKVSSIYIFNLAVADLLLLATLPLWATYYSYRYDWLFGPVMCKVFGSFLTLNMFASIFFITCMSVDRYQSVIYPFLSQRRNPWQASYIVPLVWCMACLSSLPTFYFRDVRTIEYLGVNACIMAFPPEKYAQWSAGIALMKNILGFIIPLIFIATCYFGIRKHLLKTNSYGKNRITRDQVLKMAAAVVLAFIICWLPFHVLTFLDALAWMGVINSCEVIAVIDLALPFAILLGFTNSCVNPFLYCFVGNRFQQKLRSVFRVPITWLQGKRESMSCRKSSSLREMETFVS
Experimental: (§1) Compounds were evaluated for binding to the human recombinant AT2 and AT1 receptor according to Eurofins protocol ITEM26 and ITEM24 using a radiometric scintillation assay.

[2] = target: T2, human recombinant AT1 receptor (Homo sapiens, UniProt P30556); experiment: Binding to AT1 receptor, radiometric scintillation assay (Eurofins); conditions: ligand 125I(sar1,Ile8)-AT-II, tested at 1 and 10 μM
T2 construct: purchased Eurofins ITEM24
T2 sequence (P30556 1-359): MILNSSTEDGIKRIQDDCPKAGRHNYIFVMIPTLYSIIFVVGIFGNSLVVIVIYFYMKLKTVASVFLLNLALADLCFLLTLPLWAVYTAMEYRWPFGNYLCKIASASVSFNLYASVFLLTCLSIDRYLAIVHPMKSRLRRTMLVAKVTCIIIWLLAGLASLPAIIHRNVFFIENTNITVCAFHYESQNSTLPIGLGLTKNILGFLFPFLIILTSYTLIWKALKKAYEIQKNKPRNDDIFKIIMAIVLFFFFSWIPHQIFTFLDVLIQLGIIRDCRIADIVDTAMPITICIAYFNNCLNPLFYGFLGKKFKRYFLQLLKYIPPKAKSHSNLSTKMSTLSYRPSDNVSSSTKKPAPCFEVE
Experimental: as §1

CYP1A = target: T3, CYP1A (Homo sapiens, UniProt P05177); experiment: CYP inhibition in human liver microsomes, CYP1A; type: in vitro ADME; conditions: probe phenacetin, substrate phenacetin, read-out: CYP1A Inh %
T3 construct: incubated with human liver microsomes; tissue Eurofins ITEMG232; host or cells: human liver microsomes
T3 sequence (P05177 1-516): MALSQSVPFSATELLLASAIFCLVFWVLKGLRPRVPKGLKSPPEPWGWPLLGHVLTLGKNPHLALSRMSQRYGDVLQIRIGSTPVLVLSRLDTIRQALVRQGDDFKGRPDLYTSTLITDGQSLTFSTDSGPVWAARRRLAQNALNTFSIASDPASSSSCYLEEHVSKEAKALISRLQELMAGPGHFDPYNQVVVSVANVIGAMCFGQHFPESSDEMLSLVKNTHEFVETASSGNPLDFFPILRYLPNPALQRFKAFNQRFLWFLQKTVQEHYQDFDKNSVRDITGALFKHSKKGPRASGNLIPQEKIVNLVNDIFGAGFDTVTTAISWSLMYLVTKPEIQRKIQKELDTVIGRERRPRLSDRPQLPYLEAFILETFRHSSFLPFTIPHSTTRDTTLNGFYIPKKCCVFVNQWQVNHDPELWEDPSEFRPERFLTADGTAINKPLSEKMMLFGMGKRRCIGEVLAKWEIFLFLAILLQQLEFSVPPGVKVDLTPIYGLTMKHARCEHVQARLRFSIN
Experimental: (§2) The following substrates were used: CYP1A phenacetin, CYP2B6 bupropion, CYP2C8 paclitaxel and amodiaquine, CYP2C9 diclofenac, CYP2C19 omeprazole, CYP2D6 dextromethorphan, CYP3A midazolam and testosterone. At the end of the incubation, the formation of metabolite was monitored by HPLC-MS/MS as the peak area response.

CYP2B6 = target: T4, CYP2B6 (Homo sapiens, UniProt P20813); experiment: CYP inhibition in human liver microsomes, CYP2B6; type: in vitro ADME; conditions: probe bupropion, substrate bupropion, read-out: CYP2B6 Inh %
T4 construct: incubated with human liver microsomes; tissue Eurofins ITEMG232; host or cells: human liver microsomes
T4 sequence (P20813 1-491): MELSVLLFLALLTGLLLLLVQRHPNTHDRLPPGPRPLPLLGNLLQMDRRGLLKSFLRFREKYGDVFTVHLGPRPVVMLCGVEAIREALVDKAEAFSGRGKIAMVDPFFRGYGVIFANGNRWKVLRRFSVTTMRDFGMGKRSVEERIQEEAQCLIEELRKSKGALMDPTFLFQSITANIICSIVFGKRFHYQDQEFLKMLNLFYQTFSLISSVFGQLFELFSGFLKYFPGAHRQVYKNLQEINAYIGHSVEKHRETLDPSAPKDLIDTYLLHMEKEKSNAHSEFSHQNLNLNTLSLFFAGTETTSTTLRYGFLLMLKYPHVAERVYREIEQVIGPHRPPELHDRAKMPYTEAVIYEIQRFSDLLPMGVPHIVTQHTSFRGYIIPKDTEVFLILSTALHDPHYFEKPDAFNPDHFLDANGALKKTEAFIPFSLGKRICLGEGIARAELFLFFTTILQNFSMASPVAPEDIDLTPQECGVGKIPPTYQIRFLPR
Experimental: as §2

CYP2C19 = target: T5, CYP2C19 (Homo sapiens, UniProt P33261); experiment: CYP inhibition in human liver microsomes, CYP2C19; type: in vitro ADME; conditions: substrate omeprazole; for inhibition at 10 µM: probe omeprazole, read-out: CYP2C19 Inh %
T5 construct: incubated with human liver microsomes; tissue Eurofins ITEMG232; host or cells: human liver microsomes
T5 sequence (P33261 whole entry): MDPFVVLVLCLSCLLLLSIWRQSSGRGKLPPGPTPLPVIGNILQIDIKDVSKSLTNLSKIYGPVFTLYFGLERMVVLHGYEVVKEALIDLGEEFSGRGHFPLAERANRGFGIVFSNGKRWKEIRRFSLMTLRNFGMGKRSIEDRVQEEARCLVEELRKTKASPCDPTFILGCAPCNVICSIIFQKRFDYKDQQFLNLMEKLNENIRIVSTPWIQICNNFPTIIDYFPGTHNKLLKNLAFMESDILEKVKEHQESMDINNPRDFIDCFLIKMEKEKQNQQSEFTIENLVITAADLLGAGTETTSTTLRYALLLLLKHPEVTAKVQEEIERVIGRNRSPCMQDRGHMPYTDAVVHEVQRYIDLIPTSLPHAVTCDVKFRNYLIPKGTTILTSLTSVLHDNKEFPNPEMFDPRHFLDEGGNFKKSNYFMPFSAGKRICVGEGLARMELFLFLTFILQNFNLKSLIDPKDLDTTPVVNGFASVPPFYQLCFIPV
Experimental: as §2

CYP2C8 = target: T6, CYP2C8 (Homo sapiens, UniProt P10632); experiment: CYP inhibition in human liver microsomes, CYP2C8; type: in vitro ADME; conditions: probe paclitaxel and amodiaquine, substrate paclitaxel and amodiaquine, read-out: CYP2C8 Inh %
T6 construct: incubated with human liver microsomes; tissue Eurofins ITEMG232; host or cells: human liver microsomes
T6 sequence (P10632 1-490): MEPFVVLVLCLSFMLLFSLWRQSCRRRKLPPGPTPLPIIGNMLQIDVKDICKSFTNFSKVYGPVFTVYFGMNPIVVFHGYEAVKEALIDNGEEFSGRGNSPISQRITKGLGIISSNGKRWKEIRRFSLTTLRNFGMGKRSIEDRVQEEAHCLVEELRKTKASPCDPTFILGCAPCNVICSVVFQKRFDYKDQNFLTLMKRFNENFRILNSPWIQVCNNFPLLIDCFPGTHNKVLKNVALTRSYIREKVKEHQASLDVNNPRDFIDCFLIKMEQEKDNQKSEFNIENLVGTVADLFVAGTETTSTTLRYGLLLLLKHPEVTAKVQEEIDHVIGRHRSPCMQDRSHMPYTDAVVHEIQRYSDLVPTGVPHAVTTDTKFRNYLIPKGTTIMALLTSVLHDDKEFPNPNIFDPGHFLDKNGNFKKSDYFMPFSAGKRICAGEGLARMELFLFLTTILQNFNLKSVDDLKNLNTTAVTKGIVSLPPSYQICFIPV
Experimental: as §2

CYP2D6 = target: T7, CYP2D6 (Homo sapiens, UniProt P10635); experiment: CYP inhibition in human liver microsomes, CYP2D6; type: in vitro ADME; conditions: probe dextromethorphan, substrate dextromethorphan, read-out: CYP2D6 Inh %
T7 construct: incubated with human liver microsomes; tissue Eurofins ITEMG232; host or cells: human liver microsomes
T7 sequence (P10635 whole entry): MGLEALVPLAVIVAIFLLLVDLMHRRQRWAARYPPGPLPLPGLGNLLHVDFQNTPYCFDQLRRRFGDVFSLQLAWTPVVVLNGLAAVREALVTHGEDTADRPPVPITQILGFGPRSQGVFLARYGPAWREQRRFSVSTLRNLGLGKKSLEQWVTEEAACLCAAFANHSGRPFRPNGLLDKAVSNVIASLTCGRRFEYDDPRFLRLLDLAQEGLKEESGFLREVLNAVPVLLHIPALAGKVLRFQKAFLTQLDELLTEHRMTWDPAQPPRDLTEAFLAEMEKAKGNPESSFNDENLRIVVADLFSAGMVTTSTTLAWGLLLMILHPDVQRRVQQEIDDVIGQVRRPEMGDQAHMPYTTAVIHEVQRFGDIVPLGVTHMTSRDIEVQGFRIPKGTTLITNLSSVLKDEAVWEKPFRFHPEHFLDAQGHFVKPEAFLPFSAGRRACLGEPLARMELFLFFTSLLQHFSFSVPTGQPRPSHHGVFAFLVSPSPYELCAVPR
Experimental: as §2

CYP3A4&5 = experiment: CYP inhibition in human liver microsomes, CYP3A4&5 (testosterone); type: in vitro ADME; conditions: probe testosterone, substrate testosterone, read-out: CYP3A4&5 testosterone Inh %
Experimental: as §2

CYP2C9 [3] = target: T8, CYP2C9 (Homo sapiens, UniProt P11712); experiment: CYP inhibition in human liver microsomes, CYP2C9; type: in vitro ADME; set-up: incubated with human liver microsomes; tissue Eurofins ITEMG232; host or cells: human liver microsomes; conditions: substrate diclofenac; for inhibition at 10 µM: probe diclofenac, read-out: CYP2C9 Inh %
T8 sequence (P11712 whole entry): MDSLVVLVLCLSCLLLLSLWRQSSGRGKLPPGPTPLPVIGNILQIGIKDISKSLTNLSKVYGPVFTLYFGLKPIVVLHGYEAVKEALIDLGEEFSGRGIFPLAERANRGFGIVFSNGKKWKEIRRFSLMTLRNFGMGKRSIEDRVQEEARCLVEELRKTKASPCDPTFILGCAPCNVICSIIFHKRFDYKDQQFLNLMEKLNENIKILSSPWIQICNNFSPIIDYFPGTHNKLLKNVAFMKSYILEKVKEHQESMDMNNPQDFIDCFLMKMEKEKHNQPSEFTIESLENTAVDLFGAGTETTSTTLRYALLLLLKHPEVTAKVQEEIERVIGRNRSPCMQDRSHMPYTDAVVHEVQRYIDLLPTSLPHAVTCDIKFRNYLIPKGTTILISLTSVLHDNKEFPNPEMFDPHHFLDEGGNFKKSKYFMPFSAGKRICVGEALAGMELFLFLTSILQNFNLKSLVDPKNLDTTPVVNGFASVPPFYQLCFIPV
Experimental: as §2

CYP3A4 [4] = target: T9, CYP3A4 (Homo sapiens, UniProt P08684); experiment: CYP inhibition in human liver microsomes, CYP3A4 (midazolam); type: in vitro ADME; set-up: incubated with human liver microsomes; tissue Eurofins ITEMG232; host or cells: human liver microsomes; conditions: probe midazolam, substrate midazolam, read-out: CYP3A4 midazolam Inh %
T9 sequence (P08684 whole entry): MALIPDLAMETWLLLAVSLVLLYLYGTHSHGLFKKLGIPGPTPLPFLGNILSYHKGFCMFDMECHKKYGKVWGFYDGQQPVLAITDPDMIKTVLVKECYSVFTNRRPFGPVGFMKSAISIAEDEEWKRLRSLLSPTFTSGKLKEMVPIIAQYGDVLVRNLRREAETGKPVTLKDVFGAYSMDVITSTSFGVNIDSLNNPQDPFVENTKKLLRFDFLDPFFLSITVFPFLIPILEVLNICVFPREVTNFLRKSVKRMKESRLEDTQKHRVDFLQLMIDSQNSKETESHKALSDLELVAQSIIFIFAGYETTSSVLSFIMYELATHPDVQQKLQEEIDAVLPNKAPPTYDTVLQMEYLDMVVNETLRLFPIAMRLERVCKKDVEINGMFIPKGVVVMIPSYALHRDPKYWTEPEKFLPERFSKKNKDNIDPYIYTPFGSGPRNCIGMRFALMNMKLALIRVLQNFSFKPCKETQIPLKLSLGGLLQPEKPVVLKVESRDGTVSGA
Experimental: as §2

CYP2C9 [5] = target: T8, CYP2C9; experiment: CYP inhibition found during development of C21, CYP 2C9; type: in vitro ADME; conditions: statement in background
CYP3A4 [6] = target: T9, CYP3A4; experiment: CYP inhibition found during development of C21, CYP 3A4; type: in vitro ADME; conditions: statement in background
[7] = Metabolic hydrolysis found during development of C21; type: in vitro ADME; conditions: statement in background

IC50 [1] | IC50 [2] | inhibition at 10 µM (CYP1A) | inhibition at 10 µM (CYP2B6) | inhibition at 10 µM (CYP2C19) | inhibition at 10 µM (CYP2C8) | inhibition at 10 µM (CYP2D6) | inhibition at 10 µM (CYP3A4&5) | inhibition at 10 µM (CYP2C9 [3]) | inhibition at 10 µM (CYP3A4 [4]) | CYP2C19 Inh % (CYP2C19; 10 μM) | inhibition of CYP 2C9 (CYP2C9 [5]) | inhibition of CYP 3A4 (CYP3A4 [6]) | CYP2C9 Inh % (CYP2C9 [3]; 10 μM) | Compound | metabolic hydrolysis [7]
0.0906 µM | 6 µM | -5% | 15% | 61% | 48% | 31% | 29% | 50% | 25% | – | – | – | – | Cc1cn(Cc2ccc(-c3cc(CC(C)C)sc3S(=O)(=O)NC(=O)NCc3ccccc3)cc2)c(C)n1 [Example 10, 1-Benzyl-3-(3-{p-[(2,4-dimethyl-1H-imidazol-1-yl)methyl]phenyl}-5-isobutyl-2-thienylsulfonyl)urea] | –
0.0095 µM | 58 µM | 29% | 20% | 54% | 83% | 22% | 18% | 48% | 65% | – | – | – | – | Cc1nccn1Cc1ccc(-c2cc(CC(C)C)sc2S(=O)(=O)NC(=O)N(C)Cc2ccccn2)cc1F [Example 17, 3-(3-{3-Fluoro-4-[(2-methyl-1H-imidazol-1-yl)methyl]phenyl}-5-isobutyl-2-thienylsulfonyl)-1-methyl-1-[(2-pyridyl)methyl]urea] | –
0.0074 µM | 57 µM | 23% | 88% | 91% | 65% | 88% | 58% | 79% | 91% | – | – | – | – | Cc1nccn1Cc1ccc(-c2cc(CC(C)C)sc2S(=O)(=O)NC(=O)NCCc2c[nH]cn2)cc1F [Example 16, 1-(3-{3-Fluoro-4-[(2-methyl-1H-imidazol-1-yl)methyl]phenyl}-5-isobutyl-2-thienylsulfonyl)-3-[2-(1H-imidazol-4-yl)ethyl]urea] | –
0.0169 µM | 51 µM | – | – | – | – | – | – | – | – | – | – | – | – | Cc1nccn1Cc1ncc(-c2cc(CC(C)C)sc2S(=O)(=O)NC(=O)NCc2ccccn2)cn1 [Example 22, 3-(5-Isobutyl-3-{2-[(2-methyl-1H-imidazol-1-yl)methyl]-5-pyrimidinyl}-2-thienylsulfonyl)-1-[(2-pyridyl)methyl]urea] | –
– | – | – | – | – | – | – | – | – | – | 96.0% | potent inhibitor | potent inhibitor | 99.0% | CCCCOC(=O)NS(=O)(=O)c1sc(CC(C)C)cc1-c1ccc(Cn2ccnc2)cc1 [Example C21, N-butyloxycarbonyl-3-(4-imidazol-1-ylmethylphenyl)-5-isobutylthiophene-2-sulfon-amide] | rapidly hydrolysed to an inactive sulfonamide metabolite
0.357 µM | 16 µM | – | – | – | – | – | – | – | – | – | – | – | – | Cc1nccn1Cc1ccc(-c2cc(CC(C)C)sc2S(=O)(=O)NC(=O)NCc2cc(F)cc(F)c2)nc1 [Example 23, 1-[(3,5-Difluorophenyl)methyl]-3-(5-isobutyl-3-{5-[(2-methyl-1H-imidazol-1-yl)methyl]-2-pyridyl}-2-thienylsulfonyl)urea] | –
0.127 µM | 83 µM | – | – | – | – | – | – | – | – | – | – | – | – | Cc1nccn1Cc1ccc(-c2cc(CC(C)C)sc2S(=O)(=O)NC(=O)NCCC(F)(F)F)nc1 [Example 19, 3-(5-Isobutyl-3-{5-[(2-methyl-1H-imidazol-1-yl)methyl]-2-pyridyl}-2-thienylsulfonyl)-1-(3,3,3-trifluoropropyl)urea] | –
0.119 µM | 18 µM | 5% | 14% | 53% | 34% | 44% | 17% | 29% | 22% | – | – | – | – | Cc1cn(Cc2ccc(-c3cc(CC(C)C)sc3S(=O)(=O)NC(=O)NCc3ccccn3)cc2)c(C)n1 [Example 11, 3-(3-{p-[(2,4-Dimethyl-1H-imidazol-1-yl)methyl]phenyl}-5-isobutyl-2-thienylsulfonyl)-1-[(2-pyridyl)methyl]urea] | –
